From patent US20240166617A1, “PHOSPHOINOSITIDE 3 KINASE BETA INHIBITORS AND COMPOSITIONS AND METHODS THEREOF” (Geode Therapeutics Inc., priority 2021, published 2024)
Read-outs that look alike come from different tables or passages of the source.

How the values were obtained:
PIK3Cb_h = target: T1, PIK3Cb_h (Homo sapiens, UniProt P42338); experiment: Enzyme binding assay (KINOMEscan); details: Eurofins DiscoveRx
T1 construct: purchased Eurofins DiscoveRx Corporation
Protocol: (§1) Kinase enzyme binding affinities of compounds disclosed herein were determined using the KINOMEscan technology performed by Eurofins DiscoveRx Corporation, San Diego, California, USA (www.eurofinsdiscoveryservices.com). Table 2 reports the obtained PIK3β Kd values (nM) of, with the PIK3β Kd being the inhibitor binding constant. Table 3 reports the obtained Kd values (nM), with the Kd being the inhibitor binding constant: […]

[1] = test system: phosphorylation of AKT in HCC70 cells; experiment: Cellular assay: phosphorylation of AKT in HCC70 cells (western blotting); assay type: cell-based; details: Homo sapiens, HCC70, 1 h, HCC70 cells, compound 500 nM, 60 min, inhibition of Akt activity from band intensities
How it was run: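 HCC70 cells treated with compound at 500 nM (0.1% DMSO control) for 60 min at 37 °C; pAKT Ser473 and Thr308 plus total AKT measured by western blot with fluorescent detection. Inhibition from band intensities, binned as + (20–60%), ++ (60–80%), +++ (80–90%), ++++ (>90%).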

PIK3Ca_h = target: T2, PIK3Ca_h (Homo sapiens, UniProt P42336); experiment: Enzyme binding assay (KINOMEscan); details: Eurofins DiscoveRx
T2 construct: purchased Eurofins DiscoveRx Corporation
T2 sequence (P42336 whole entry): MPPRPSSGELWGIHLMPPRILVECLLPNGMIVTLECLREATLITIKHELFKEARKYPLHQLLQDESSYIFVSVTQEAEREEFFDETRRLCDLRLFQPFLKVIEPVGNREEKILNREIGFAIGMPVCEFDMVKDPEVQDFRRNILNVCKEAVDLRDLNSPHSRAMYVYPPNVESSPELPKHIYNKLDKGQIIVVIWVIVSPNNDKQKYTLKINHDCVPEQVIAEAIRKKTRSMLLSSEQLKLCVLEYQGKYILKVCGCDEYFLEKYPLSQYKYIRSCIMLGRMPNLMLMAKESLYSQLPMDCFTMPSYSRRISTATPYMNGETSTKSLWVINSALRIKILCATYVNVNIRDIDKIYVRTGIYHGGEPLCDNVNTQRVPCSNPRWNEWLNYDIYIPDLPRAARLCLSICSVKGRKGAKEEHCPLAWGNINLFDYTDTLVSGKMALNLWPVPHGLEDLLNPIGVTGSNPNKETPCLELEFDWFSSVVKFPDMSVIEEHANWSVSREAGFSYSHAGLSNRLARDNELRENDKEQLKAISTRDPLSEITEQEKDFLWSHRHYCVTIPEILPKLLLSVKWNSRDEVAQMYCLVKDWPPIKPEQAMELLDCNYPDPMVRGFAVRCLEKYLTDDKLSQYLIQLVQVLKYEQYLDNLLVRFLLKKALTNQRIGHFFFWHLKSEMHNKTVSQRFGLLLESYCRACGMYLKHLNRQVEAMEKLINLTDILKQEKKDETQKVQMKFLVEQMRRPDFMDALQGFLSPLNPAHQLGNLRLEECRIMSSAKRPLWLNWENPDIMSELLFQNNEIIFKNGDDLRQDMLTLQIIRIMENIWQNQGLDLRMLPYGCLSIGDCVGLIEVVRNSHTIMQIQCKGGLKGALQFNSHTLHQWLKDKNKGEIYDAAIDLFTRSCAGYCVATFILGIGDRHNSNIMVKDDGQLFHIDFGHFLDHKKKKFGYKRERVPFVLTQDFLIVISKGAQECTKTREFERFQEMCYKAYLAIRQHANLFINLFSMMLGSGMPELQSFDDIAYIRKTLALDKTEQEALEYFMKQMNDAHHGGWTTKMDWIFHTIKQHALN
Protocol: as §1

PIK3Cg_h = target: T3, PIK3Cg_h (Homo sapiens, UniProt P48736); experiment: Enzyme binding assay (KINOMEscan); details: Eurofins DiscoveRx
T3 construct: purchased Eurofins DiscoveRx Corporation
T3 sequence (P48736 whole entry): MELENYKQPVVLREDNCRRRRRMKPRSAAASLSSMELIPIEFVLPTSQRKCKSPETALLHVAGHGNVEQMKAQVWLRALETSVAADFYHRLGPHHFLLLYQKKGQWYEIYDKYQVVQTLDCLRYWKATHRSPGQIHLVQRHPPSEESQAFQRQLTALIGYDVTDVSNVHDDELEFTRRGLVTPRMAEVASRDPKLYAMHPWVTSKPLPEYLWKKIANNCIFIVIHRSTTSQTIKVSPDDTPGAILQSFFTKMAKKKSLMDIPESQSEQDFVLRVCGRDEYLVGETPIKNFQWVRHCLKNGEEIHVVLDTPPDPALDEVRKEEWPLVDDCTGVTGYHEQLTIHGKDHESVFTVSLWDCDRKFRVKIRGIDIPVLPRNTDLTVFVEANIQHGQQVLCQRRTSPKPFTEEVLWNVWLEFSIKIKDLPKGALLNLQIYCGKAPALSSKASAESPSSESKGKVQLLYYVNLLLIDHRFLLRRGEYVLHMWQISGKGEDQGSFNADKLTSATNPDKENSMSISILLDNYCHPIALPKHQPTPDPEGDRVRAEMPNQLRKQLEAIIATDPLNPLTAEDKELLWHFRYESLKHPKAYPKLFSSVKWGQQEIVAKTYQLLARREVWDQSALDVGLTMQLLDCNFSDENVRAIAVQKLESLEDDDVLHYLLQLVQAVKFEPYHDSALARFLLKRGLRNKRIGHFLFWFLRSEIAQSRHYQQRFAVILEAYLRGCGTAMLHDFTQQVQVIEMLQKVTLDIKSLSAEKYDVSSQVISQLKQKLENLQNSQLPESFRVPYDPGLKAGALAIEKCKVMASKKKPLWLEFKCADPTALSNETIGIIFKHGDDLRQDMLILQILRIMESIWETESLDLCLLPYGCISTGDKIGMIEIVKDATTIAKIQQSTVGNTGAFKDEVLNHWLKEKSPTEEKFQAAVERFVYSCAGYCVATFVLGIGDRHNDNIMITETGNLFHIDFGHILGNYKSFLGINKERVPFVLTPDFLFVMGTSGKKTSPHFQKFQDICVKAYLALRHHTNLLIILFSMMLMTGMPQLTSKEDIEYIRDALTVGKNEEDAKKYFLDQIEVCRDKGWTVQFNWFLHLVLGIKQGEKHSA
Protocol: as §1

PIK3Cd_h = target: T4, PIK3Cd_h (Homo sapiens, UniProt O00329); experiment: Enzyme binding assay (KINOMEscan); details: Eurofins DiscoveRx
T4 construct: purchased Eurofins DiscoveRx Corporation
T4 sequence (O00329 1-1044): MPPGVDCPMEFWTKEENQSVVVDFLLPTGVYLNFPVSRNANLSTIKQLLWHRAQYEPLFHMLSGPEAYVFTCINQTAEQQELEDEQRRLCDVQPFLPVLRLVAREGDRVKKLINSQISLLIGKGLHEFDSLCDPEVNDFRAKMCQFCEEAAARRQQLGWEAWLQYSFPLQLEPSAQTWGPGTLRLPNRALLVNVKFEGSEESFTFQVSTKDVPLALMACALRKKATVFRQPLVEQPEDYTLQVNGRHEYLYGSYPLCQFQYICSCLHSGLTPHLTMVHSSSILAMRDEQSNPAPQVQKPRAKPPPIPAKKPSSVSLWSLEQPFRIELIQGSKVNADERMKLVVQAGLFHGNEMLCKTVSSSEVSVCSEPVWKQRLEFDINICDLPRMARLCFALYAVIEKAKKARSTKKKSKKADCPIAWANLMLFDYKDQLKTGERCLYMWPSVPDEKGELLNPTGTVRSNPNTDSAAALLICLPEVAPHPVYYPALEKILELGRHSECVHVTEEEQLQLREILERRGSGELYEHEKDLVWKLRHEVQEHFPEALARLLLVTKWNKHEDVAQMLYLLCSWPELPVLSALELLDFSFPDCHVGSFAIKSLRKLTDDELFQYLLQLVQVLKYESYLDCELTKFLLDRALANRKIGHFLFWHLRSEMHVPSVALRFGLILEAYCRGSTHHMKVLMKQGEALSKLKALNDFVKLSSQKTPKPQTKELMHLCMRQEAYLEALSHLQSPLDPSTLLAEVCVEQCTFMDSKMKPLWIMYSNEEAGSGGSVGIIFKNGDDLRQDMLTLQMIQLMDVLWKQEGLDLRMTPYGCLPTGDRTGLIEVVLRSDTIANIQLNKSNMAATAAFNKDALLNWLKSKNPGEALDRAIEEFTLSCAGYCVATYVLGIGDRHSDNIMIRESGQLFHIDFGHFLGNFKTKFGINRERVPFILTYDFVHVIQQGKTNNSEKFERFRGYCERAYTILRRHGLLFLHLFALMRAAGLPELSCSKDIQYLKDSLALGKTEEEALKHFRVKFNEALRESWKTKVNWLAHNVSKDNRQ
Protocol: as §1

[2] = read-out: Index of AI (HCC70) p-AKT Thr 308
[3] = read-out: Index of AI (HCC70) p-AKT ser 473

T1 sequence (P42338 whole entry): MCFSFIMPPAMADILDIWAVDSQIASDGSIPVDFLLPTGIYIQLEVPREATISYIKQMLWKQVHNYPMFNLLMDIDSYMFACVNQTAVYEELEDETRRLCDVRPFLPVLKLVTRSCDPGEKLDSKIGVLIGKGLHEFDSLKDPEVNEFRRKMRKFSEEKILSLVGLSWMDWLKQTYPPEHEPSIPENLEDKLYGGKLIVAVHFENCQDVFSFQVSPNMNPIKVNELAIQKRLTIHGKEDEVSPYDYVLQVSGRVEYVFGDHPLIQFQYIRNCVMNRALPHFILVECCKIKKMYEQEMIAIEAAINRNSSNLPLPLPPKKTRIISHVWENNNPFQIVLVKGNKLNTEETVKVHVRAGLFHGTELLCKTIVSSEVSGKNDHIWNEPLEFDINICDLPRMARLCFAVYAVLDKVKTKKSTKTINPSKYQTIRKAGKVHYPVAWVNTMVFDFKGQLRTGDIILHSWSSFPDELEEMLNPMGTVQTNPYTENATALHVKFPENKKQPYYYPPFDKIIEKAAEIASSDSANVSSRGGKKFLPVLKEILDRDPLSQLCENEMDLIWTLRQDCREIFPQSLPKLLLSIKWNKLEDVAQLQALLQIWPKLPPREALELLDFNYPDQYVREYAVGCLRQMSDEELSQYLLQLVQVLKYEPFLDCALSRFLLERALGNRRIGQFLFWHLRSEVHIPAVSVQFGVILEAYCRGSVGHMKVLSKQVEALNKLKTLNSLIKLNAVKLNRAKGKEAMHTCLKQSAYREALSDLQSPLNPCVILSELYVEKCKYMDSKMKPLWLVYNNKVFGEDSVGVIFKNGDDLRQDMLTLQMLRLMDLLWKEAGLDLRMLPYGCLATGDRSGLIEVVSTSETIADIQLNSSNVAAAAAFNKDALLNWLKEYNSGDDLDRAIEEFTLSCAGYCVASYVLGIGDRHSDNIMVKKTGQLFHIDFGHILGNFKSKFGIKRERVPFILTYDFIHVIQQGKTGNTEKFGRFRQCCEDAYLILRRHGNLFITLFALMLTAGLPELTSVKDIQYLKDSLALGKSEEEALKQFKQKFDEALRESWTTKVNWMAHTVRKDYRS

Compound	Kd (PIK3Cb_h)	Kd (PIK3Ca_h)	Kd (PIK3Cg_h)	Kd (PIK3Cd_h)	inhibition at 0.5 µM [1, 2]	inhibition at 0.5 µM [1, 3]
CC(Nc1cc(F)cc(F)c1)c1cc(C(=O)N2CC(N(C)C)C2)cn2c(=O)cc(N3CCOCC3)nc12 (stereo not drawn) [Compound 49, 9-(1-((3,5-difluorophenyl)amino)ethyl)-7-(3-(dimethylamino)azetidine-1-carbonyl)-2-morpholino-4H-pyrido[1,2-a]pyrimidin-4-one]	0.67 nM	–	–	–	60 to 80%	60 to 80%
C[C@@H](Nc1cc(F)cc(F)c1)c1cc(C(=O)N2CC[C@H](N(C)C)C2)cn2c(=O)cc(N3CCOCC3)nc12 [Compound 48-P4, 9-((R)-1-((3,5-difluorophenyl)amino)ethyl)-7-((S)-3-(dimethylamino)pyrrolidine-1-carbonyl)-2-morpholino-4H-pyrido[1,2-a]pyrimidin-4-one]	–	190 nM	1600 nM	18 nM	–	–
Cc1cc(C(C)N2CCc3c(F)cc(F)cc32)c2nc(N3CCOCC3)cc(=O)n2c1 (stereo not drawn) [Compound 59, 9-(1-(4,6-difluoroindolin-1-yl)ethyl)-7-methyl-2-morpholino-4H-pyrido[1,2-a]pyrimidin-4-one]	0.61 nM	–	–	–	80 to 90%	80 to 90%
Cc1cc(C(C)N2c3cc(F)cc(F)c3CC2C)c2nc(N3CCOCC3)cc(=O)n2c1 (stereo not drawn) [Compound 58, 9-(1-(4,6-difluoro-2-methylindolin-1-yl)ethyl)-7-methyl-2-morpholino-4H-pyrido[1,2-a]pyrimidin-4-one]	2 nM	–	–	–	80 to 90%	80 to 90%
C[C@@H](Nc1cc(F)cc(F)c1)c1cc(C(=O)N2CC[C@H](N(C)C)C2)cn2c(=O)cc(N3CCOCC3)nc12 [Compound 51, 9-((R)-1-((3,5-difluorophenyl)amino)ethyl)-7-((S)-3-(dimethylamino)pyrrolidine-1-carbonyl)-2-morpholino-4H-pyrido[1,2-a]pyrimidin-4-one]	0.12 nM	–	–	–	> 90%	> 90%
CC(Nc1cc(F)cc(F)c1)c1cc(NC(=O)C2CCCC2)cc2c(=O)cc(N3CCOCC3)oc12 (stereo not drawn) [Compound 12, N-(8-(1-((3,5-difluorophenyl)amino)ethyl)-2-morpholino-4-oxo-4H-chromen-6-yl)cyclopentanecarboxamide]	0.55 nM	–	–	–	> 90%	> 90%
C[C@@H](Nc1cc(F)cc(F)c1)c1cc(C(=O)N2CC[C@@H](N(C)C)C2)cn2c(=O)cc(N3CCOCC3)nc12 [Compound 50, 9-((R)-1-((3,5-difluorophenyl)amino)ethyl)-7-((R)-3-(dimethylamino)pyrrolidine-1-carbonyl)-2-morpholino-4H-pyrido[1,2-a]pyrimidin-4-one]	0.11 nM	–	–	–	> 90%	> 90%
C[C@@H](Nc1cc(F)cc(F)c1)c1cc(C(=O)N2CC[C@@H](N(C)C)C2)cn2c(=O)cc(N3CCOCC3)nc12 [Compound 48-P3, 9-((R)-1-((3,5-difluorophenyl)amino)ethyl)-7-((R)-3-(dimethylamino)pyrrolidine-1-carbonyl)-2-morpholino-4H-pyrido[1,2-a]pyrimidin-4-one]	–	92 nM	1100 nM	8.9 nM	–	–

Second part, led by results:

Kd (PIK3Cb_h)	Kd (PIK3Ca_h)	Kd (PIK3Cg_h)	Kd (PIK3Cd_h)	Compound	inhibition at 0.5 µM [1, 2]	inhibition at 0.5 µM [1, 3]
0.067 nM	–	–	–	CC(Nc1cc(F)cc(F)c1)c1cc(N)cc2c(=O)cc(N3CCOCC3)oc12 (stereo not drawn) [Compound 19, 6-amino-8-(1-((3,5-difluorophenyl)amino)ethyl)-2-morpholino-4H-chromen-4-one]	> 90%	> 90%
1.3 nM	–	–	–	CN1CCN(C(=O)c2cc(CN3CCc4c(F)cc(F)cc43)c3oc(N4CCOCC4)cc(=O)c3c2)CC1 [Compound 44, 8-((4,6-difluoroindolin-1-yl)methyl)-6-(4-methylpiperazine-1-carbonyl)-2-morpholino-4H-chromen-4-one]	80 to 90%	80 to 90%
0.32 nM	–	–	–	CC(Nc1cc(F)cc(F)c1)c1cc(C(=O)N2CC[C@H](N(C)C)C2)cc2c(=O)cc(N3CCOCC3)oc12 (stereo partly drawn) [Compound 30, 8-(1-((3,5-difluorophenyl)amino)ethyl)-6-((S)-3-(dimethylamino)pyrrolidine-1-carbonyl)-2-morpholino-4H-chromen-4-one]	80 to 90%	80 to 90%
0.21 nM	–	–	–	COC(=O)Cc1cc(C(C)Nc2cc(F)cc(F)c2)c2oc(N3CCOCC3)cc(=O)c2c1 (stereo not drawn) [Compound 25, methyl 2-(8-(1-((3,5-difluorophenyl)amino)ethyl)-2-morpholino-4-oxo-4H-chromen-6-yl)acetate]	> 90%	> 90%
0.17 nM	–	–	–	CC(Nc1cc(F)cc(F)c1)c1cc(C(=O)N2CC[C@@H](N(C)C)C2)cc2c(=O)cc(N3CCOCC3)oc12 (stereo partly drawn) [Compound 29, 8-(1-((3,5-difluorophenyl)amino)ethyl)-6-((R)-3-(dimethylamino)pyrrolidine-1-carbonyl)-2-morpholino-4H-chromen-4-one]	> 90%	> 90%
0.52 nM	–	–	–	CC1Cc2c(F)cc(F)cc2N1C(C)c1cc(C(=O)N(C)C)cc2c(=O)cc(N3CCOCC3)oc12 (stereo not drawn) [Compound 38, 8-(1-(4,6-difluoro-2-methylindolin-1-yl)ethyl)-N,N-dimethyl-2-morpholino-4-oxo-4H-chromene-6-carboxamide]	> 90%	> 90%
0.37 nM	–	–	–	CN(C)C(=O)c1cc(CN2CC(C)(C)c3c(F)cc(F)cc32)c2oc(N3CCOCC3)cc(=O)c2c1 [Compound 34, 8-((4,6-difluoro-3,3-dimethylindolin-1-yl)methyl)-N,N-dimethyl-2-morpholino-4-oxo-4H-chromene-6-carboxamide]	80 to 90%	80 to 90%
0.28 nM	–	–	–	CC(Nc1cc(F)cc(F)c1)c1cc(C(=O)N2CCC(N(C)C)C2)cc2c(=O)cc(N3CCOCC3)oc12 (stereo not drawn) [Compound 27, 8-(1-((3,5-difluorophenyl)amino)ethyl)-6-(3-(dimethylamino)pyrrolidine-1-carbonyl)-2-morpholino-4H-chromen-4-one]	> 90%	> 90%
0.14 nM	–	–	–	CC(Nc1cc(F)cc(F)c1)c1cc(NS(C)(=O)=O)cc2c(=O)cc(N3CCOCC3)oc12 (stereo not drawn) [Compound 13, N-(8-(1-((3,5-difluorophenyl)amino)ethyl)-2-morpholino-4-oxo-4H-chromen-6-yl)methanesulfonamide]	80 to 90%	80 to 90%
0.26 nM	–	–	–	O=C(c1cc(CN2CCc3c(F)cc(F)cc32)c2oc(N3CCOCC3)cc(=O)c2c1)N1CCCC1 [Compound 42, 8-((4,6-difluoroindolin-1-yl)methyl)-2-morpholino-6-(pyrrolidine-1-carbonyl)-4H-chromen-4-one]	> 90%	> 90%
0.072 nM	–	–	–	CN(C)CCNC(=O)c1cc(CN2CCc3c(F)cc(F)cc32)c2oc(N3CCOCC3)cc(=O)c2c1 [Compound 39, 8-((4,6-difluoroindolin-1-yl)methyl)-N-(2-(dimethylamino)ethyl)-2-morpholino-4-oxo-4H-chromene-6-carboxamide]	> 90%	> 90%
0.059 nM	–	–	–	CC(Nc1cc(F)cc(F)c1)c1cc(O)cc2c(=O)cc(N3CCOCC3)oc12 (stereo not drawn) [Compound 15, 8-(1-((3,5-difluorophenyl)amino)ethyl)-6-hydroxy-2-morpholino-4H-chromen-4-one]	> 90%	> 90%
